Results published in patent US20240209302A1, “SYSTEMS, METHODS, AND DEVICES FOR EX VIVO ANALYSIS OF RESECTED TISSUE SAMPLES” (The United States of America,as represented by the …, priority 2020, published 2024).

Tests used:
Type in all cases: cell-based, human
[1] = test system: SDH-B deficient GIST metastases to the peritoneum; experiment: Decitabine treatment of GIST tissue in ex vivo perfusion system (H&E, IHC, live imaging); conditions: 0-10 μM in perfusate; tissues harvested after 4 days
From the text: The system of FIG. 7A is also well-suited as a translational tool and/or as a tool for enrollment into clinical trials, especially where pre-clinical models are otherwise non-existent. For example, SDH-B deficient GIST is a rare subtype driven by epigenetic silencing of the gene, unresponsive to conventional agents (imatinib) and with no available cell lines or mouse models. Tissue from a patient with SDH-B deficient GIST was utilized in the system of FIG. 7A to investigate decitabine, a potential treatment option being evaluated for this population. Using early demethylation markers as a read-out, changes associated with decitabine treatment at physiologic and supraphysiologic doses were not detected. […] Sample platforms of tissue from the patient with GIST metastases to the peritoneum were cultured in perfusate supplemented with 0-10 μM decitabine. […] Stack projections of live images of control sample at day 0 and day 3 as well as a sample treated with 5 μM decitabine with fluorophore-conjugated antibodies against CD45 and CD117 also show no changes in the decitabine-treated tissue.
In any of the above discussed examples, tissue from system 700 was subject to similar histopathologic evaluations. […] Viability on H&E was defined as preservation of normal tissue architecture, intact nuclei, and normal population of immune cells (qualitative and quantitative). […]

[2] = test system: sidewall peritoneum from a gastric cancer patient (gastric adenocarcinoma); experiment: Check-point inhibitor evaluation in ex vivo perfusion system, gastric cancer tissue (2-photon imaging); conditions: incubated for 2 days; Alexa488CD44/Alexa594CD45 antibodies
Experimental: (§1) The system of FIG. 7A is well-suited to evaluate immunotherapeutic agents. Given that check-point inhibitors have made their way into the clinic for seemingly most solid tumors, such inhibitors were evaluated in the system of FIG. 7A using a tumor from a patient with gastric adenocarcinoma and a tumor from a patient with colorectal adenocarcinoma. Neither of these histologies have significant response rates to check-point inhibitors outside of select genomic subpopulations, which was not applicable to either patient in this example. FIGS. 12A-12D illustrates results of this example.
(§2) In the top panel, sample platforms with sidewall peritoneum from a gastric cancer patient were incubated with immune checkpoint inhibitor pembrolizumab for 2 days followed by Alexa488CD44/Alexa594CD45 antibodies. Maximum projections of 2-photon images illustrate the intimate contact between CD45-positive cells and the cancer cells. The bottom panel provides a timeseries montage of images taken from liver capsule tissue mounted on sample platforms from a colorectal cancer patient with liver metastases incubated with 5 μg/ml of pembrolizumab for 4 hr. […]
(§3) Image acquisition was performed on an inverted Leica SP8 setup using multiphoton excitation at 870 nm together with a 25×/0.95 W VISIR lens. […] Images were analyzed using ImageJ software. […]

[3] = test system: liver capsule tissue from a colorectal cancer patient with liver metastases (colorectal adenocarcinoma); experiment: Check-point inhibitor evaluation in ex vivo perfusion system, colorectal cancer tissue (timeseries imaging); conditions: 5 μg/ml for 4 hr
Experimental: as §1, §2, §3

[4] = test system: resected cholangiocarcinoma tumor and liver capsule; experiment: Tivozanib treatment of cholangiocarcinoma tissue in ex vivo perfusion system (H&E, Ki67)
Experimental: In another example, the system of FIG. 7A was used to identify a new target in patients with cholangiocarcinoma. The target is a kinase, SLK, that activates AKT signaling leading to aggressive tumor biology and poor patient outcomes. Although no SLK-specific inhibitor exists, the kinome profiles of available kinase inhibitors was evaluated, and tivozanib was identified. Using tissue from a patient with cholangiocarcinoma in the system of FIG. 7A, tivozanib was evaluated. […] Resected cholangiocarcinoma tumor as well as liver capsule mounted on sample platforms treated with 0-1 mg/ml tivozanib were prepared for IHC, stained with H&E and Ki67 antibody. Cells in control and drug-treated platforms were evaluated for viability, degeneration and necrosis.
In any of the above discussed examples, tissue from system 700 was subject to similar histopathologic evaluations. For example, the tissues were preserved in the 10% neutral buffered formalin, then through the tissue processor and embedded in paraffin and cut at 5-micron sections for hematoxylin and eosin (H&E) slides. Slides were prepared for H&E staining and immunohistochemistry, respectively to detect CD3 (T cells), CD68 (macrophages), Ki-67 and MIBI (mitotic activity). CD3 and CD68 were predilute antibodies as purchased, while Ki-67 and (MIB-1) were run at 1:200 dilution. All stains were done on an automated immunostainer (Ventana Benchmark Ultra). Viability on H&E was defined as preservation of normal tissue architecture, intact nuclei, and normal population of immune cells (qualitative and quantitative). Each sample was compared against day 0 control samples. Ki67 or stains were performed to assess proliferative activity of the tumor cells. Samples stained with Ki67 or MIB1 on day 4 were compared to day 0 samples to confirm no change in proliferative activity.

**Q.** What does the source list for `Nc1ncn([C@H]2C[C@H](O)[C@@H](CO)O2)c(=O)n1` [decitabine]?
**A.** methylation status of GIST (SDHB, 5-HMC, 5-MC IHC) [1]: no effect; proliferation activity of GIST (Ki67) [1]: no effect

**Q.** Which “binding of immune cells (CD45-positive) to cancer cells” value [2] does the source give for pembrolizumab here?
**A.** stimulates binding of immune cells to cancer cells

**Q.** What about the “immune cell engagement with tumor cells” value [3] of the same compound?
**A.** Immune cell engagement was observed

**Q.** What about the “tumor cell lysis / apoptosis of CD44-positive cancer cells bound by CD45-positive cells” value [3] of the same compound?
**A.** captured tumor cell lysis

**Q.** How did the “cell death in liver metastases (viability, degeneration, necrosis)” value ([4]; 0-1 mg/ml, FIGS. 12C-12D) turn out when `COc1cc2nccc(Oc3ccc(NC(=O)Nc4cc(C)on4)c(Cl)c3)c2cc1OC` [tivozanib] was run?
**A.** induces cell death

**Q.** What about the “tumor cell effect at physiologic doses” value ([4]; physiologic doses) of the same compound?
**A.** tumor cell degeneration

**Q.** What about the “tumor cell effect at supraphysiologic concentrations” value ([4]; supraphysiologic concentrations) of the same compound?
**A.** frank necrosis
